Reference: the NIST ThermoML archive (doi:10.1016/j.jct.2016.08.005)

Settings: Liquid, Vibrating tube method

c1ccsc1 [thiophene]
mass density [kg/m3]
Settings | 283.15 K | 288.15 K | 293.15 K | 298.15 K | 303.15 K | 308.15 K
100 kPa | 1076.4 | 1070.54 | 1064.59 | 1058.65 | 1052.71 | 1046.7
2000 kPa | 1077.94 | 1072.11 | 1066.21 | 1060.32 | 1054.43 | 1048.48
5000 kPa | 1080.27 | 1074.53 | 1068.67 | 1062.91 | 1057.07 | 1051.21
7000 kPa | 1081.81 | 1076.12 | 1070.33 | 1064.57 | 1058.82 | 1052.99
10000 kPa | 1084.09 | 1078.46 | 1072.75 | 1067.05 | 1061.36 | 1055.61
15000 kPa | 1087.78 | 1082.24 | 1076.63 | 1071.07 | 1065.48 | 1059.87
20000 kPa | 1091.37 | 1085.9 | 1080.39 | 1074.94 | 1069.46 | 1063.97
25000 kPa | 1094.82 | 1089.45 | 1084.05 | 1078.69 | 1073.3 | 1067.92
30000 kPa | 1098.18 | 1092.91 | 1087.58 | 1082.3 | 1077.03 | 1071.73
35000 kPa | 1101.44 | 1096.24 | 1091.01 | 1085.81 | 1080.62 | 1075.4
40000 kPa | 1104.61 | 1099.5 | 1094.34 | 1089.21 | 1084.1 | 1078.99
45000 kPa | 1107.7 | 1102.65 | 1097.57 | 1092.53 | 1087.49 | 1082.45
50000 kPa | 1110.71 | 1105.72 | 1100.7 | 1095.73 | 1090.79 | 1085.8
55000 kPa | 1113.62 | 1108.7 | 1103.77 | 1098.86 | 1093.96 | 1089.07
60000 kPa | 1116.47 | 1111.61 | 1106.72 | 1101.89 | 1097.06 | 1092.23
65000 kPa | 1119.27 | 1114.44 | 1109.63 | 1104.85 | 1100.09 | 1095.31
